In patent US20240261296A1, “THERAPEUTIC MODALITIES FOR INHIBITING PANCREATIC BETA CELL IMPAIRMENT AND TREATING DIABETES” (Hadasit Medical Research Serices & Development Ltd., priority 2021, published 2024):

Test system: human islets β-cells
Test: glucose-stimulated insulin secretion and insulin content in palmitate-treated human islets
Type: cell-based
Conditions: palmitic acid 0.3 mM, 48 hr, donors 1 and 2
Procedure: Determination of glucose-stimulated insulin secretion (GSIS) and content: To determine acute insulin release in response to glucose stimulation, islets were washed with Krebs-Ringer bicarbonate buffer pH 7.4, containing 10 mM HEPES and 0.5% bovine serum albumin (KRBH), and pre-incubated for 2 hrs in the same buffer containing 3.3 mM glucose. The buffer was then discarded and replaced with fresh KRBH containing 3.3 mM glucose, and the islets incubated for 1 hour for basal insulin secretion, followed by additional 1 hour incubation in KRBH containing 16.7 mM glucose. The supernatants were collected, centrifuged at 900 rpm and insulin was determined by Rat or Human insulin radioimmunoassay (RIA) kits (Linco Research, St. Charles, MO) according to the Manufacturer's instructions. […] The acidic ethanol eluates were collected and the amount of insulin determined by ELISA.
ELISA Assay: Insulin was extracted from the intracellular storage granules in human islets cells using a lysis buffer (Ethanol-HCl). The extract was analysed by a specific ELISA (Mercodia) which is a solid phase two-site enzyme immunoassay based on the sandwich technique, in which two monoclonal antibodies are directed against separate antigenic determinants on the insulin molecule. […]

With `CC[C@@H]1CC[C@H](C)N1C(=O)c1cccc(NS(=O)(=O)c2ccc(C)c(F)c2)c1` [Compound C13, N-(3-((2R,5S)-2-ethyl-5-methylpyrrolidine-1-carbonyl)phenyl)-3-fluoro-4-methylbenzenesulfonamide] the “restoring glucose-stimulated insulin secretion” value (16.7 mM glucose) was “more potent than L-798106” and the restoring insulin content was “more potent than L-798106”.
